Measurements published in ChEMBL document CHEMBL3400066, “2-(Isopropylamino)thieno[3,2-d]pyrimidin-4(3H)-one derivatives as selective phosphodiesterase 7 inhibitors with potent in vivo efficacy” (Bioorg Med Chem Lett, 2015).
In brackets after ≈: the same amount, converted by molar mass.

Key:
[1] = target: High affinity 3',5'-cyclic-AMP phosphodiesterase 7A (Homo sapiens, UniProt Q13946); assay: Inhibition of human PDE7A expressed in insect cells assessed as inhibition of [3H]cAMP to [3H]AMP hydrolysis after 30 mins by scintillation counting
[2] = target: 3',5'-cyclic-AMP phosphodiesterase 4B (Homo sapiens, UniProt Q07343); assay: Inhibition of human PDE4B expressed in insect cells assessed as inhibition of [3H]cAMP to [3H]AMP hydrolysis after 30 mins by scintillation counting
[3] = Solubility of the compound in phosphate buffer at pH 6.8; format: physicochemical
[4] = target: cGMP-inhibited 3',5'-cyclic phosphodiesterase 3A (Homo sapiens, UniProt Q14432); assay: Inhibition of PDE3A (unknown origin)
[5] = target: cGMP-specific 3',5'-cyclic phosphodiesterase (Homo sapiens, UniProt O76074); assay: Inhibition of PDE5A (unknown origin)
Mus musculus [6] = assay: Antiinflammatory activity in ICR mouse ear edema model assessed as inhibition of TPA-induced edema at 1% W/V per ear administered topically 30 mins before TPA challenge; format: functional
Mus musculus [7] = assay: Antiinflammatory activity in ICR mouse ear edema model assessed as inhibition of TPA-induced edema at 0.3 % W/V per ear administered topically 30 mins before TPA challenge; format: functional
Lymphocyte = assay: Inhibition of IL2 production in activated mouse lymphocytes after 3 hrs by ELISA; format: functional, cell-based

Chain of 3',5'-cyclic-AMP phosphodiesterase 4B (Q07343 whole entry): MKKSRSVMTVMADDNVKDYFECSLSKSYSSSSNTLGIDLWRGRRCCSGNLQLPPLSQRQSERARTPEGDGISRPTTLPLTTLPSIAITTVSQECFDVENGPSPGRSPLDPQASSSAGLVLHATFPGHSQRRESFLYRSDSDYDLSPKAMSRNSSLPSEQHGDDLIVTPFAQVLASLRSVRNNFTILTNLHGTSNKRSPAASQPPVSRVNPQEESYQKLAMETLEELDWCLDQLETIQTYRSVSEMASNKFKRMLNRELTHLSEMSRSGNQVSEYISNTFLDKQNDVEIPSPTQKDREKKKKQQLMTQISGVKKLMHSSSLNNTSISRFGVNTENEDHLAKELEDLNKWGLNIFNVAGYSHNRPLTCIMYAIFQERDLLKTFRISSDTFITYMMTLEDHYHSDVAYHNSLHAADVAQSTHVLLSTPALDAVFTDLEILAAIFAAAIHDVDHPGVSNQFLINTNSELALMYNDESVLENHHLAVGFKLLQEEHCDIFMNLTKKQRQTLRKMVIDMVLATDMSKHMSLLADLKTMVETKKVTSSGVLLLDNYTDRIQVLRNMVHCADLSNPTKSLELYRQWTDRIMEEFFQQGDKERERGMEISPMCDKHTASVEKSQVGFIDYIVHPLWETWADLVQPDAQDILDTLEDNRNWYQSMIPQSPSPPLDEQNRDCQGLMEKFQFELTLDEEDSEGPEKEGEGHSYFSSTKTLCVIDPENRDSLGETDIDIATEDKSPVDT
Chain of cGMP-inhibited 3',5'-cyclic phosphodiesterase 3A (Q14432 whole entry): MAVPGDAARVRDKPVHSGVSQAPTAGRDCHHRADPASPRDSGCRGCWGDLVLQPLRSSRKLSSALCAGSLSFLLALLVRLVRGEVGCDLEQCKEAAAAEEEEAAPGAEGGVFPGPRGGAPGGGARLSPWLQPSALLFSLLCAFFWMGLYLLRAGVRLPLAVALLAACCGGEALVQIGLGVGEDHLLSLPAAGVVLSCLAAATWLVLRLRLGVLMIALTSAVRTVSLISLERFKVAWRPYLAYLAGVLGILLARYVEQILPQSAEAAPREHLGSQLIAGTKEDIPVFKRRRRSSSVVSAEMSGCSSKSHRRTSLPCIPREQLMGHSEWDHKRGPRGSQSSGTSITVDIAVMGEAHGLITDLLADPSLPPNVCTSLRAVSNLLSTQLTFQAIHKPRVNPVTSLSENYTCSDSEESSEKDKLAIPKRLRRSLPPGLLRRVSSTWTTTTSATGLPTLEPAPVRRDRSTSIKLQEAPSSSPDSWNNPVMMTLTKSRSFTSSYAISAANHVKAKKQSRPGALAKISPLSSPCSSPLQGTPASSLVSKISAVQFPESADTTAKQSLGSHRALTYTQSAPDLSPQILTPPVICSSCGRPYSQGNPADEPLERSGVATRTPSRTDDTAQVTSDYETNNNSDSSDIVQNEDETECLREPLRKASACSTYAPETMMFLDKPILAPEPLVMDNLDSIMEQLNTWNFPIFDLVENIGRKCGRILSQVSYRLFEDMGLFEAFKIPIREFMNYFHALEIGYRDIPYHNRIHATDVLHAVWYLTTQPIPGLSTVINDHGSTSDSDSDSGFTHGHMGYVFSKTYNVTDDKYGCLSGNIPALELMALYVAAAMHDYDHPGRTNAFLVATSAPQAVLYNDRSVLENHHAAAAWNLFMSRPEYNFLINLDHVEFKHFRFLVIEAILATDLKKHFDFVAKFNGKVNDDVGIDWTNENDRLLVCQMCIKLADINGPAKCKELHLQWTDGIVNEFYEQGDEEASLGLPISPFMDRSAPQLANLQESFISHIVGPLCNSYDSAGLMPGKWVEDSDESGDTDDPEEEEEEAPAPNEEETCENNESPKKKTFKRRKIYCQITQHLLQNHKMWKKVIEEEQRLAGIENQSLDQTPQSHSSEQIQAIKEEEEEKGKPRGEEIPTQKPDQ
Chain of High affinity 3',5'-cyclic-AMP phosphodiesterase 7A (Q13946 whole entry): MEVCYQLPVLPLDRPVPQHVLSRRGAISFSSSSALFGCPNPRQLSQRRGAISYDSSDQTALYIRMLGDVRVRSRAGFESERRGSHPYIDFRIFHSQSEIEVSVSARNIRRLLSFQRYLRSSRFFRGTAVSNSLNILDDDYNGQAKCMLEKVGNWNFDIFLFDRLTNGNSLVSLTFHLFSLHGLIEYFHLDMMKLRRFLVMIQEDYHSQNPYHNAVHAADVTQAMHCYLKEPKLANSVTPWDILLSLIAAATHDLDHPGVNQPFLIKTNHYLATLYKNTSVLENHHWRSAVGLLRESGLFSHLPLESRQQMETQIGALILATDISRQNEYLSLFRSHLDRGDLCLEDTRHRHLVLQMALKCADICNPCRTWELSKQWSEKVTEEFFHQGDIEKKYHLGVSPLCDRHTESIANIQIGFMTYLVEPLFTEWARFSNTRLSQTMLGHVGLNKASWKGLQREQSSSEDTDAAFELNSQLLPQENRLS

Row | Structure (SMILES) | IC50 [1] [nM] | IC50 [2] [nM] | solubility [3] [µg/mL] | IC50 [4] [nM] | IC50 [5] [nM] | inhibition (INH) (Mus musculus [6]) [%] | inhibition (INH) (Mus musculus [7]) [%] | IC50 (Lymphocyte) [nM]
1 | CCn1c(NC(C)C)nc2c(C3CCN(C(=O)c4ncccc4C)C3)csc2c1=O (stereo not given) | 1.4 | 140 | 64 (≈ 150 µM) | 1300 | 3100 | 77 | 62 | 270
2 | CCn1c(NC(C)C)nc2c(C3CCN(C(C)=O)CC3)csc2c1=O | 20 | 1500 | 74 (≈ 204 µM) |  |  |  |  | 2000
3 | CCNc1nc2ccsc2c(=O)n1CC | 2900 |  | 240 (≈ 1070 µM) |  |  |  |  | 
4 | CCn1c(CC(C)C)nc2ccsc2c1=O | 4700 |  |  |  |  |  |  | 
5 | CCn1c(NC(C)C)nc2c(C3CCN(C(=O)CC(C)C)C3)csc2c1=O (stereo not given) | 8.1 | 2300 | 15 (≈ 38.4 µM) |  |  |  |  | 1800
6 | CCn1c(NC(C)C)nc2c(C3CCCN(C(C)=O)C3)csc2c1=O (stereo not given) | 5.1 | 560 | 230 (≈ 634 µM) |  |  |  |  | 750
7 | CCn1c(N[C@H]2CC[C@H](C(=O)OC)CC2)nc2ccsc2c1=O | 2100 |  | 13 (≈ 38.8 µM) |  |  |  |  | 
8 | CCn1c(NC(C)C)nc2c(-c3cccnc3)csc2c1=O | 4.4 | 520 | 5.8 (≈ 18.4 µM) |  |  |  |  | 
9 | CCCNc1nc2ccsc2c(=O)n1CC | 1400 |  | 69 (≈ 291 µM) |  |  |  |  | 
10 | CCn1c(NC(C)C)nc2c(-c3ccco3)csc2c1=O | 12 | 550 | 0.1 (≈ 0.33 µM) |  |  |  |  | 
11 | CCn1c(NC(C)C)nc2c(C3CCN(C(=O)C(C)C)C3)csc2c1=O (stereo not given) | 8.4 | 1400 | 130 (≈ 345 µM) |  |  |  |  | > 1000
12 | CCn1c(NC(C)C)nc2c(-c3sc(C)nc3C)csc2c1=O | 6.4 | 200 | 4.5 (≈ 12.9 µM) |  |  |  |  | 
13 | CCn1c(NC(C)C)nc2c(-c3cncnc3)csc2c1=O | 7.6 | 1100 | 18 (≈ 57.1 µM) |  |  |  |  | 
14 | CCn1c(NC(C)C)nc2ccsc2c1=O |  |  | 190 (≈ 801 µM) |  |  |  |  | 
15 | CCn1c(NC2CCC2)nc2ccsc2c1=O | 300 | 4800 | 6.3 (≈ 25.3 µM) |  |  |  |  | 
16 | CCn1c(NC(C)C)nc2c(C3CCN(c4ccccn4)CC3)csc2c1=O | 6.8 | 440 |  |  |  |  |  | > 3000
17 | CCn1c(NC(C)C)nc2c(C3CCN(C(=O)c4ccccc4)C3)csc2c1=O (stereo not given) | 1.5 | 380 | 21 (≈ 51.2 µM) |  |  |  |  | 760
18 | CCn1c(NC(C)C)nc2c(C3CCN(C(=O)c4ccccn4)C3)csc2c1=O (stereo not given) | 2.7 | 200 | 38 (≈ 92.3 µM) | 3300 | 3000 | 72 | 45 | 290
19 | CCn1c(NC(C)(C)C)nc2ccsc2c1=O | 1500 |  | 3.7 (≈ 14.7 µM) |  |  |  |  | 
20 | CCn1c(NC2CCOCC2)nc2ccsc2c1=O | 430 | 12000 | 37 (≈ 132 µM) |  |  |  |  | 
21 | CCn1c(NC(C)C)nc2c(C3CCN(C(=O)c4cccc(C)n4)C3)csc2c1=O (stereo not given) | 3.3 | 46 | 150 (≈ 352 µM) | 1600 | 2300 | 96 | 65 | 150
22 | CCn1c(N[C@H]2CC[C@H](O)CC2)nc2ccsc2c1=O | 2300 | 24000 | 74 (≈ 252 µM) |  |  |  |  | 
23 | CCn1c(NC(C)C)nc2c(C3CCN(C(C)C)CC3)csc2c1=O | 170 | 25000 | 350 (≈ 965 µM) |  |  |  |  | > 3000
24 | CCn1c(NC2CC2)nc2ccsc2c1=O | 2600 |  | 430 (≈ 1830 µM) |  |  |  |  | 
25 | CCn1c(N[C@H]2CC[C@H](C(=O)O)CC2)nc2ccsc2c1=O | 1300 |  | 450 (≈ 1400 µM) |  |  |  |  | 
26 | CCn1c(NC(C)C)nc2c(C3CCN(C(C)=O)C3)csc2c1=O (stereo not given) | 15 | 1900 | 470 (≈ 1350 µM) |  |  |  |  | 
27 | CCn1c(NC(C)C)nc2c(C3CCNCC3)csc2c1=O | 190 | 14000 | 1100 (≈ 3430 µM) |  |  |  |  | 
28 | CCn1c(NC(C)C)nc2c(-c3ccnc(OC)c3)csc2c1=O | 4.6 | 420 | 2.4 (≈ 6.97 µM) |  |  |  |  | 
